From ChEMBL document CHEMBL5390297, “New Teixobactin Analogues with a Total Lactam Ring” (2023)
Converted amounts (≈) assume the structure as drawn.

What was measured:
Assay type in all cases: functional
[1] = tested on: Escherichia coli; assay: Antibacterial activity against Escherichia coli ATCC 25922 assessed as reduction in bacterial growth incubated for 18 hrs by CLSI based broth microdilution method
[2] = tested on: Nakaseomyces glabratus; assay: Antifungal activity against Candida glabrata ATCC 15126 assessed as reduction in bacterial growth incubated for 24 hrs by CLSI based broth microdilution method
[3] = tested on: Staphylococcus aureus; assay: Antibacterial activity against methicillin-resistant Staphylococcus aureus ATCC 33591 assessed as reduction in bacterial growth incubated for 24 hrs by CLSI based broth microdilution method
[4] = tested on: Staphylococcus aureus; assay: Antibacterial activity against Staphylococcus aureus ATCC 25923 assessed as reduction in bacterial growth incubated for 18 hrs by CLSI based broth microdilution method
[5] = tested on: Staphylococcus epidermidis; assay: Antibacterial activity against Staphylococcus epidermidis ATCC 14990 assessed as reduction in bacterial growth incubated for 18 hrs by CLSI based broth microdilution method

SMILES	MIC [1] [µg/mL]	MIC [2] [µg/mL]	MIC [3] [µg/mL]	MIC [4] [µg/mL]	MIC [5] [µg/mL]
CC[C@H](C)[C@@H]1NC(=O)[C@H](CCCNC(=N)N)NC(=O)[C@H](C)NC(=O)[C@H](NC(=O)[C@H](CO)NC(=O)[C@@H](NC(=O)[C@H](NC(=O)[C@@H](CCC(N)=O)NC(=O)[C@H](CO)NC(=O)[C@@H](NC(=O)[C@@H](Cc2ccccc2)NC)[C@@H](C)CC)[C@@H](C)CC)[C@@H](C)CC)CNC1=O	> 512	> 512	–	–	–
CCCC[C@@H]1NC(=O)[C@H](CCCNC(=N)N)NC(=O)[C@H](C)NC(=O)[C@H](NC(=O)[C@H](CO)NC(=O)[C@@H](NC(=O)[C@H](NC(=O)[C@@H](CCC(N)=O)NC(=O)[C@H](CO)NC(=O)[C@@H](NC(=O)[C@@H](Cc2ccccc2)NC)[C@@H](C)CC)[C@@H](C)CC)[C@@H](C)CC)CNC1=O	> 512	> 512	–	–	–
CCCC[C@@H]1NC(=O)[C@H](CCCNC(=N)N)NC(=O)[C@H](C)NC(=O)[C@H](NC(=O)[C@H](CO)NC(=O)[C@@H](NC(=O)[C@H](NC(=O)[C@@H](CCC(N)=O)NC(=O)[C@H](CO)NC(=O)[C@@H](NC(=O)[C@H](N)Cc2ccccc2)[C@@H](C)CC)[C@@H](C)CC)[C@@H](C)CC)CNC1=O	> 512	> 512	4 (≈ 3.29 µM)	4 (≈ 3.29 µM)	8 (≈ 6.58 µM)
CC[C@H](C)[C@H](NC(=O)[C@H](N)Cc1ccccc1)C(=O)N[C@@H](CO)C(=O)N[C@H](CCC(N)=O)C(=O)N[C@@H](C(=O)N[C@H](C(=O)N[C@@H](CO)C(=O)N[C@@H]1CNC(=O)[C@H]([C@@H](C)CC)NC(=O)[C@H](CCCNC(=N)N)NC(=O)[C@H](C)NC1=O)[C@@H](C)CC)[C@@H](C)CC	> 512	> 512	–	–	–
CC[C@H](C)[C@H](NC(=O)[C@H](N)Cc1ccccc1)C(=O)N[C@@H](CO)C(=O)N[C@H](CCCNC(=N)N)C(=O)N[C@@H](C(=O)N[C@H](C(=O)N[C@@H](CO)C(=O)N[C@@H]1CNC(=O)[C@H]([C@@H](C)CC)NC(=O)[C@H](CCCNC(=N)N)NC(=O)[C@H](C)NC1=O)[C@@H](C)CC)[C@@H](C)CC	> 512	> 512	–	–	–
